Assay results as given in US20140328930A1, “Pharmaceutical Compositions” (Alpharma Pharmaceuticals, LLC, priority 2007, published 2014).
Structures can show the parent of a compound that is named as a salt.

What was measured:
[1] = single dose 2.4 mg naltrexone, fasted
clinical = settings: human, in vivo, 2.4 mg
[2] = cited from earlier work

## O=C1CC[C@@]2(O)[C@H]3Cc4ccc(O)c5c4[C@@]2(CCN3CC2CC2)[C@H]1O5 [Naltrexone HCl Solution]
[1]
  Naltrexone Tlast, Mean: 20.00 h
  Naltrexone λz, Mean: 0.2013 h⁻¹
clinical
  Tmax: 1.13 h
  concentration at 0 h: 0 ng/mL
  concentration at 0.5 h: 0.455 ng/mL
  concentration at 1 h: 0.629 ng/mL
  concentration at 2 h: 0.465 ng/mL
  concentration at 3 h: 0.286 ng/mL
  concentration at 4 h: 0.182 ng/mL
  concentration at 5 h: 0.133 ng/mL
  concentration at 6 h: 0.0957 ng/mL
  concentration at 8 h: 0.0518 ng/mL
  concentration at 10 h: 0.0287 ng/mL
  concentration at 12 h: 0.0205 ng/mL
  concentration at 16 h: 0.00996 ng/mL
  concentration at 24 h: 0.00316 ng/mL
  concentration at 36 h: 0.000607 ng/mL
  concentration at 48 h: 0 ng/mL
  concentration at 60 h: 0 ng/mL
  concentration at 72 h: 0 ng/mL
  concentration at 84 h: 0 ng/mL
  concentration at 96 h: 0 ng/mL
  concentration at 120 h: 0 ng/mL
clinical; Naltrexone AUC0-t, Mean, single dose 2.4 mg naltrexone, fasted
  AUC(0-t): 2.2 ng·h/mL
clinical; Naltrexone AUCinf, Mean, single dose 2.4 mg naltrexone, fasted
  AUC(0-inf): 2.24 ng·h/mL
clinical; Naltrexone Cmax, Mean, single dose 2.4 mg naltrexone, fasted
  Cmax: 0.689 ng/mL
clinical; Naltrexone ln(AUCinf), Geometric Mean, Least Squares Mean of log-transformed values
  AUC(0-inf): 1.99 ng·h/mL
clinical; Naltrexone ln(AUClast), Geometric Mean, Least Squares Mean of log-transformed values
  AUC(0-t): 1.95 ng·h/mL
clinical; Naltrexone ln(Cmax), Geometric Mean, Least Squares Mean of log-transformed values
  Cmax: 0.58 ng/mL

## O=C1CC[C@@]2(O)[C@H]3Cc4ccc(O)c5c4[C@@]2(CCN3CC2CC2)[C@H]1O5 [naltrexone]
[2]; in vivo
  Protein binding: approximately 21%
[2]; oral
  Oral bioavailability: 5-40%
